The source of these data is patent publication US10561666B2, “Amido compounds as RORγt modulators and uses thereof” (New York University, priority 2010, dated 2020).

For one assay, the system named is mouse Th17 polarization. As to the kind of experiment: Mouse Th17 polarization assay (IL-17a producing cells). In kind it is cell-based. As for the experimental part:
Effects of compound derivatives at various concentrations on mouse Th17 polarization. Percentage of DMSO treated IL-17a producing cells was set at 100. Naive mouse CD4 T cells (CD25^−, CD62L^+, and CD44^int-high) were sorted and cultured with CD3/CD28 stimulatory antibodies in the presence of TGFβ (0.1 ng/ml) and IL6 (20 ng/ml). Compounds were added on Day 1 and cells were analyzed on Day 4. For intracellular cytokine staining, cells were incubated for 5 h with phorbol ester (50 ng/ml; Sigma), ionomycin (500 ng/ml; Sigma) and GolgiStop (BD). When needed, surfaces were stained by incubation for 15 min on ice with PECy7-conjugated CD4 (BD Biosciences). The Cytofix/Cytoperm buffer set (BD) was used for intracellular staining. Cells were fixed and made permeable for 30 min on ice and were stained for 30 min on ice in permeabilization buffer with Alexa647-conjugated anti-IL17 (eBioscience) and PE-conjugated anti-IFNg (eBioscience). An LSR II (BD Biosciences) and FlowJo software (Tree Star) were used for flow cytometry. RORg IC50 value acquired from the S2 cell reporter assay is listed for comparison.
(§1) Naive CD4 T cells (CD25^−, CD62L^+, and CD44^int-high) were sorted and cultured with CD3/CD28 stimulatory antibodies in the presence of TGFβ (0.1 ng/ml) and IL6 (20 ng/ml). Compounds were added on Day 1 and cells were analyzed on Day 4. For intracellular cytokine staining, cells were incubated for 5 h with phorbol ester (50 ng/ml; Sigma), ionomycin (500 ng/ml; Sigma) and GolgiStop (BD). When needed, surfaces were stained by incubation for 15 min on ice with PECy7-conjugated CD4 (BD Biosciences). The Cytofix/Cytoperm buffer set (BD) or FoxP3 staining kit (eBioscience) were used for intracellular staining. Cells were fixed and made permeable for 30 min on ice and were stained for 30 min on ice in permeabilization buffer with Alexa647-conjugated anti-IL17 (eBioscience), PE-conjugated anti-IFNg (eBioscience), and/or PE-conjugated anti-FoxP3 (eBioscience). An LSR II (BD Biosciences) and FlowJo software (Tree Star) were used for flow cytometry.

A further assay has as its target RORγt (Mus musculus, UniProt P51450, T352K). As to the kind of experiment: RORγt S2 cell Gal4-luciferase reporter assay.
The target of assay [1] is T1, recombinant human RORγ LBD (Homo sapiens, UniProt P51449).
T1 construct: recombinant human RORγ LBD was loaded with fluorescently-labeled 25-hydroxycholesterol
T1 sequence (P51449 269-508 limits assumed): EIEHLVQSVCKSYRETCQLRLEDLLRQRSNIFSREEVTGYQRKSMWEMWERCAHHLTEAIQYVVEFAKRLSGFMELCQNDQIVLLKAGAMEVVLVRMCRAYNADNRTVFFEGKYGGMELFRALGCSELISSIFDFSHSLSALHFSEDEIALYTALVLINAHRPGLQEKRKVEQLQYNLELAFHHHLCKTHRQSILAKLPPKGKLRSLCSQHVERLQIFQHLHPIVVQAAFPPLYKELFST
As to the kind of experiment: In vitro competition assay, fluorescence polarization with labeled 25-hydroxycholesterol. In kind it is binding. The note with it: various concentrations. An excerpt:
The presence of increasing concentrations of NCGC00166547 was correlated with displacement of the fluorescently-labeled 25-hydroxycholesterol from the LBD.
For orientation: Fluorescence polarisation rises when a labelled molecule tumbles more slowly, as on binding a larger partner.

Another assay relates to Th1 differentiation. As to the kind of experiment: Mouse Th1 differentiation counter-screen (IFNγ production). In kind it is cell-based. Conditions: 20 μM, naive CD4 T cells, IL12 and IL2 (FIG. 4). As for the experimental part: as §1
For Th1 differentiation, IL12 (10 ng/ml) and IL2 (10 U) was added to naive CD4 T cell cultures instead of TGFβ and IL6.
In general terms: The purpose of a counterscreen is to sort out artefacts and off-target activity.

In assay [2] the test system is Human memory (CD45RO+CD45RA−CD3+CD4+CCR6+CD161+) cells. The assay can be described thus: Human memory Th17 cell maintenance (IL-17a / IFN-γ staining). In kind it is cell-based. Conditions: 3 uM, 6 days. An excerpt: Intracellular staining for IFN-γ or IL-17a in memory CD4^+T cells from multiple donors, assessed on day 6. Each symbol (n=11 or 9, respectively) indicates a separate donor.

In assay [3] the test system is human Th17 cell differentiation. The assay can be described thus: Human Th17 cell differentiation of naive cord blood T cells. Conditions: IL2, IL23, IL1β, TGFβ, six days (FIG. 6B). The class given is cell-based. As for the experimental part:
Flow cytometry of IL-17a and IFN-γ production by cord blood naive CD4^+T cells (CD45RO^−CD45RA^+CD3^+CD4^+CD25^−HLA-DR^−)transduced with RORαd-IRES-GFP or RORγt-IRES-GFP on day 1 and analyzed on day 6. GFP expressing cells were gated for analysis. […] Flow cytometry of IL-17a and IFN-γ production by human naive cord blood T cells (CD45RO^−D45RA^+CD3^+CD4^+CD25^−HLA-DR^−), which were cultured for six days in presence of IL2, IL23 and IL1β, and with various concentrations of TGFβ (ng/ml). DMSO or N2 was added 16 hours after the cytokine addition.
The results depict flow cytometry of IL-17a and IFN-γ production by cord blood naive CD4^+ T cells (CD45RO^−CD45RA^+CD3^+CD4^+CD25^−HLA-DR^−)transduced with human RORαd-IRES-GFP or human RORγt-IRES-GFP on day 1 and analyzed on day 6. GFP expressing cells were gated for analysis. […] The results depict flow cytometry of IL-17a and IFN-γ production by human naive cord blood T cells (CD45RO^−D45RA^+CD3^+CD4^+CD25^−HLA-DR^−), which were cultured for six days in the presence of IL2, IL23 and ILβ, and with various concentrations of TGFβ (ng/mL). […] IL-17a-APC (eBio64CAP17 eBioscience) and IFN-γ-PECy7 (45.B3 eBioscience) were used for analysis.

Each structure is given as a SMILES string.

Sequence of RORγt (P51450 with tags, fused parts or gaps T352K): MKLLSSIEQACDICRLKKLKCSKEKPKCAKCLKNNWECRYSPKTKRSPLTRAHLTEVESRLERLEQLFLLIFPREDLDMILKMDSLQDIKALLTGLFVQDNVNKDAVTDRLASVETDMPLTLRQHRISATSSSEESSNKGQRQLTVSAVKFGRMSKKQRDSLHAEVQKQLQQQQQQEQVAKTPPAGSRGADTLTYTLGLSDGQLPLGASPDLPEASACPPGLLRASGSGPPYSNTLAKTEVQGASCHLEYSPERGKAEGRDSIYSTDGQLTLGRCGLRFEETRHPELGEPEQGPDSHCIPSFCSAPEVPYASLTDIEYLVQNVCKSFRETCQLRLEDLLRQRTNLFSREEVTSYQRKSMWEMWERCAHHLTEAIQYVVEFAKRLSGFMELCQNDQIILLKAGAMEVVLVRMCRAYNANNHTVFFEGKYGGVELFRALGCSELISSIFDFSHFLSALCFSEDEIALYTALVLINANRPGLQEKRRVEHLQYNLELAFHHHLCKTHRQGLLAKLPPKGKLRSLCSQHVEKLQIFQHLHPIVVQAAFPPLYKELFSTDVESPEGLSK

`COc1cc(OC)c(C(CC(=O)N2CC(C)CC(C)C2)c2ccc3c(c2)OCO3)c(OCC(N)=O)c1` (stereo not shown) [Compound 137]: the concentration for half-maximal inhibition (IC50) (usually the concentration at which inhibition is half-maximal) with mouse Th17 polarization (naive mouse CD4 T cells, TGFβ and IL6, compounds added Day 1, analyzed Day 4, IL-17a producing cells, read-out: Th 17 IC50) was greater than 20 µM; on RORγt (IC50(μM), Drosophila S2 cells, Gal4-RORγt luciferase reporter, 20 hr), 11 to 50 µM; against RORγt (S2 cell RORg IC50 μM, S2 cell reporter assay, listed for comparison), 11 to 20 µM. In addition, the Emax on RORγt (read-out: Efficacy (%)) worked out at 98.5%.

In the case of `COc1cc(O)c(C(CC(=O)N2CCCC(C)C2)c2ccc3c(c2)OCO3)c(OC)c1` (stereo not shown) [NCGC00166547], the “mouse Th17 cell differentiation, as measured by IL17a production” value with mouse Th17 polarization (20 μM, compared to DMSO treated cells, FACS (FIG. 3)) is listed as “suppress mouse Th17 cell differentiation”. Besides, the “binding to human RORγt (displacement of fluorescently-labeled 25-hydroxycholesterol)” value in assay [1] was “directly bind to human RORγt”. Besides, the “Th1 differentiation, as measured by IFNγ production” value in the assay with Th1 differentiation is “does not inhibit Th1 differentiation”.

On to `COc1cc(O)c(C(CC(=O)N2C[C@H](C)C[C@H](C)C2)c2ccc3c(c2)OCO3)c(OC)c1` (stereo partly shown) [NCGC00238427], for which the “IL-17a expression in human memory Th17 cells” value in assay [2] (multiple donors, IL-17a+IFN-γ+/−, p=0.02 (FIG. 7)) was “inhibits human Th17 cell memory cells expression of IL-17a”. Further, in assay [2] (two-tailed unpaired Student's t test (FIG. 7)), the “IL-17a−IFN-γ+ memory CD4+ T cells, with versus without compound” value is on record as “not significant”. The “concentration at which human Th17 cell differentiation is inhibited” value in assay [3] is no more than 1 µM.
